Legend:
[1] = Enhancement ratio was calculated to determine the radiosensitization as the ratio of radiation dose required to kill similar cells in anoxia to those with the compound; at a concentration of ~5 mM; assay type: functional, Cricetulus griseus
[2] = Concentration required to kill 50 % of the cells after ca. 7 days aerobic exposure.; assay type: functional, Cricetulus griseus
Nucleic Acid = assay: Concentration required for 50% decrease in fluorescence of ethidium bromide bound to calf thymus DNA. at 600 nm; assay type: nucleic-acid assay; conditions: Bos taurus
[3] = Concentration required to kill 50 % of the cells after ca. 7 days aerobic exposure; value ranges from 0.025-0.05; assay type: functional, Cricetulus griseus
[4] = Enhancement ratio was calculated to determine the radiosensitization as the ratio of radiation dose required to kill similar cells in anoxia to those with the compound; at a concentration of 0.05 mM; assay type: functional, Cricetulus griseus
[5] = Cellular uptake was calculated as the ratio of intracellular and extracellular concentration in V79 hamster cells.; assay type: functional, Cricetulus griseus
[6] = Enhancement ratio was calculated to determine the radiosensitization as the ratio of radiation dose required to kill similar cells in anoxia to those with the compound; at a concentration of 1.0 mM; assay type: functional, Cricetulus griseus
[7] = Enhancement ratio was calculated to determine the radiosensitization as the ratio of radiation dose required to kill similar cells in anoxia to those with the compound; at a concentration of 0.5 mM; assay type: functional, Cricetulus griseus
[8] = Concentration required to kill 50 % of the cells after ca. 7 days exposure.; assay type: functional, Cricetulus griseus

SMILES	C50 (Nucleic Acid)	C50 [2]	Ratio (Ci/Ce) [5]	Ratio [7]	also measured
Cc1ncc([N+](=O)[O-])n1CCO [METRONIDAZOLE]	3200 µM	6.5 mM	–	–	Ratio [1]: 1.6
Cn1cc(NC(=O)c2cc(NC(=O)CNC(=N)N)cn2C)cc1C(=O)NCCC(=N)N	1.1 µM	–	–	–	–
O=C(Cn1ccnc1[N+](=O)[O-])NCCO [ETANIDAZOLE]	3000 µM	–	0.4	–	Ratio [6]: 1.55
COCC(O)Cn1ccnc1[N+](=O)[O-] (stereo not drawn) [MISONIDAZOLE]	2700 µM	1.3 mM	0.7	–	–
NC(=O)N/N=C/c1ccc([N+](=O)[O-])o1 [NITROFURAZONE]	> 1000 µM	0.13 mM	–	–	Ratio [4]: 1.6

Now from value to compound, other results behind:

C50 (Nucleic Acid)	SMILES	C50 [2]	Ratio (Ci/Ce) [5]	Ratio [7]	also measured
26 µM	Cl.Cn1cc(NC(=O)c2ccc([N+](=O)[O-])o2)cc1C(=O)NCCC(=N)N	–	–	–	C50 [3]: 0.025 mM; Ratio [4]: 1.3
1.3 µM	Cn1cc(NC(=O)c2cc(NC(=O)c3cc(NC=O)cn3C)cn2C)cc1C(=O)NCCC(=N)N	–	–	–	–
6.8 µM	Cl.Cn1cc(NC(=O)Cn2ccnc2[N+](=O)[O-])cc1C(=O)NCCC(=N)N	>0.25 mM	–	1.04	–
4.8 µM	Cl.Cn1cc(NC(=O)c2cc(NC(=O)c3ccc([N+](=O)[O-])o3)cn2C)cc1C(=O)NCCC(=N)N	–	9.4	1.16	C50 [8]: <0.01 mM
16 µM	Cl.Cn1cc(NC(=O)c2cc(NC(=O)Cn3ccnc3[N+](=O)[O-])cn2C)cc1C(=O)NCCC(=N)N	>0.25 mM	3.6	1.04	–
